A word on the inhibition in vivo: it is the relative decrease from the control value, in per cent. Lower therefore signals a response near the control.

Some results are limits rather than exact numbers.

From patent publication US5527815A, “Carboxymethylidenecycloheptimidazole derivatives, method of manufacturing the same and therapeutic agents containing these compounds” (Kotobuki Seiyaku Co., Ltd., priority 1993, dated 1996) come the findings set out here.

The target in one assay is T1, Angiotensin II receptor (Oryctolagus cuniculus, UniProt P34976).
T1 construct: Rabbit thoracic aorta is isolated, contracted by angiotensin II; from tissue; host or cells: rabbit thoracic aorta
T1 sequence (P34976 1-359): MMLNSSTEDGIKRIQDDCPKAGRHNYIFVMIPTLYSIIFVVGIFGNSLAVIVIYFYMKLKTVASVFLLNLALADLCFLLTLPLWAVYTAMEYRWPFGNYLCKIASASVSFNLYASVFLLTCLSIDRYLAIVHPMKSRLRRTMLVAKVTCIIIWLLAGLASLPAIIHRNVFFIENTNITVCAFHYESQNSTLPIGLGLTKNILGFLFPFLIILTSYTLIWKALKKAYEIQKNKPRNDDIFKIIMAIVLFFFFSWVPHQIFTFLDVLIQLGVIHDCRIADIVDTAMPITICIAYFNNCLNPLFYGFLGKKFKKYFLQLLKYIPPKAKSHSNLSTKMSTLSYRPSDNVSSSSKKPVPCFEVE
The experiment in a line: AII receptor antagonistic activity: inhibition of angiotensin II induced contraction of isolated rabbit thoracic aorta. Format: cell-based. Particulars: isolated rabbit thoracic aorta contracted by angiotensin II; Van Rossum method; values shown in parenthesis. The protocol: [AII receptor antagonistic activity]
Angiotensin II receptor activity experiments are carried out according to P. C. Wong et al. (Hypertension 15, 823 (1990)).
Rabbit thoracic aorta is isolated, contracted by angiotensin II. The inhibition of contraction by the compound of formula (1) is expressed as pA2 from dose-response curve (Schild, Brit. J. Pharmacol. 14, 48 (1959)) or expressed as pD2 ' according to the method of J. M. Van Rossum (Arch. Intern. Pharmacodyn., 143, 229 (1963)).

For another assay, the system named is pressor responses to AII. The experiment in a line: Inhibition of AII induced blood pressure increase in rats. The class given is in vivo. To be noted: Rattus norvegicus, po, test compound 0.3 mg/kg orally, AII 30 ng/kg i.v., pressor responses measured at set times. How it is done:
[Inhibition of All induced Blood Pressure Increase]
Carotid artery and left femoral vein in rats were cannulated. Next day, the carotid catheter was connected to a pressure transducer for monitoring arterial blood pressure. After the measurement of AII (30 ng/kg, i.v.) pressor responses, test compounds (0.3 mg/kg) were administered orally.
Thereafter, the pressor responses to AII at set times were measured and the inhibition percent was calculated according to the comparison of the pressor responses.

Turning to `CCCc1nc2c(n1Cc1ccc(-c3ccccc3-c3nnn[nH]3)cc1)/C(=C/C(=O)OC(C)OC(=O)OC(C)C)CCCC2` (centres unmarked) [Compound 29, 2-Propyl-8-(1-isopropoxycarbonyloxy)ethoxycarbonylmethylidene-1-[(2'-(1H-tetrazole-5-yl)biphenyl-4-yl)methyl]-4,5,6,7-tetrahydro-cycloheptimidazole], the “pD2'” value on Angiotensin II receptor is given as 8.18. In the assay with pressor responses to AII, the inhibition in vivo at 0.3 mg/kg was ≥ 70%.
